# ChEMBL document CHEMBL6182877, “Design, synthesis, and activity evaluation of novel STING inhibitors based on C170 and H151” (Eur J Med Chem, 2025)
# Active and inactive are the calls of the source. No cut-off for these calls is given here.
# Key:
# [1] = molecular target: T1, Stimulator of interferon genes protein (Mus musculus) (UniProt Q3TBT3); experiment: Binding affinity to STING in mouse RAW264.7 cells assessed as increase in thermal stability at 30 uM 47 to 62 degreeC incubated for 8 hrs by CETSA analysis; assay type: cell-based
# T1 sequence (whole entry): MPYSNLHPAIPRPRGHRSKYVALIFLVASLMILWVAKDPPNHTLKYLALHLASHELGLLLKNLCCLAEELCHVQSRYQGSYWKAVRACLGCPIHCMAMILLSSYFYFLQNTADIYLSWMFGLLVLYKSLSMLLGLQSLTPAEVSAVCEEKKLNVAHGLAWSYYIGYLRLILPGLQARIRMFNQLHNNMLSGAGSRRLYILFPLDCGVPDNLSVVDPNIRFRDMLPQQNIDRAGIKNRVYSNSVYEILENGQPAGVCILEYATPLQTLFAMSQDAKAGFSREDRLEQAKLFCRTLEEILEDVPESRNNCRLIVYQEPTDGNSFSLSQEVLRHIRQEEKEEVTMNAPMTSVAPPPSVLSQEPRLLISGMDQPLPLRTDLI
# [2] = molecular target: Stimulator of interferon genes protein (Homo sapiens) (UniProt Q86WV6); experiment: Inhibition of STING activation in human THP-1 cells assessed as reduction in SR717-induced CXCL10 mRNA expression at 0.03 to 0.3 uM pretreated with compound for 1 hr followed by SR717 induction and measured after 4 hrs by qPCR analysis; assay type: cell-based; settings: dose 0.03-0.3 µM, time 5.0 hrs
# Chain of Stimulator of interferon genes protein (Homo sapiens) (Q86WV6 whole entry): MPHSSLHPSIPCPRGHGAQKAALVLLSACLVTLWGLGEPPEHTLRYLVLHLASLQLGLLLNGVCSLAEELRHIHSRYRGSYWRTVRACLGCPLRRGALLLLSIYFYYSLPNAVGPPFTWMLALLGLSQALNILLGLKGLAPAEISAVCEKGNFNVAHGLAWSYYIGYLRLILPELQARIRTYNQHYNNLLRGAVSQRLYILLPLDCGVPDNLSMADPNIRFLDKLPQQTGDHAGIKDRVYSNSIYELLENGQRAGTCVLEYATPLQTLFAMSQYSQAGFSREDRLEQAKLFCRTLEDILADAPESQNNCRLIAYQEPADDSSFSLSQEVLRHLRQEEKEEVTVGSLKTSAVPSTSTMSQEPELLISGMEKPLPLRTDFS
# [3] = molecular target: Stimulator of interferon genes protein (Homo sapiens) (UniProt Q86WV6); experiment: Inhibition of STING activation in human THP-1 cells assessed as reduction in SR717-induced IFNbeta mRNA expression at 0.03 to 0.3 uM pretreated with compound for 1 hr followed by SR717 induction and measured after 4 hrs by qPCR analysis; assay type: cell-based; settings: dose 0.03-0.3 µM, time 5.0 hrs
# Mus musculus [4] = experiment: Anti-inflammatory activity in cisplatin-induced acute kidney injury C57BL/6J mouse model assessed as reduction in kidney index at 10 to 20 mg/kg, ip; assay type: functional, organism-based; settings: dose 10-20 mg/kg
# Mus musculus [5] = experiment: Renoprotective activity in cisplatin-induced acute kidney injury C57BL/6J mouse model assessed as reduction in […] level at 10 to 20 mg/kg, ip; assay type: functional, organism-based; settings: dose 10-20 mg/kg
# Mus musculus [6] = experiment: Anti-inflammatory activity in cisplatin-induced acute kidney injury C57BL/6J mouse model assessed as reduction in ALT level in plasma at 10 to 20 mg/kg, ip; assay type: functional, organism-based; settings: dose 10-20 mg/kg
# Mus musculus [7] = experiment: Anti-inflammatory activity in cisplatin-induced acute kidney injury C57BL/6J mouse model assessed as reduction in AST level in plasma at 10 to 20 mg/kg, ip; assay type: functional, organism-based; settings: dose 10-20 mg/kg
# Mus musculus [8] = experiment: Protection against cisplatin-induced C57BL/6J mouse assessed as reduction in inflammatory cell exudation in kidney at 10 to 20 mg/kg, ip pretreated with compound for 1 hr followed by cisplatin induction and measured after 4 hrs by H and E staining based analysis; assay type: functional, organism-based; settings: dose 10-20 mg/kg, time 5.0 hrs
# Mus musculus [9] = experiment: Protection against cisplatin-induced C57BL/6J mouse assessed as reduction in tubular epithelial edema in kidney at 10 to 20 mg/kg, ip pretreated with compound for 1 hr followed by cisplatin induction and measured after 4 hrs by H and E staining based analysis; assay type: functional, organism-based; settings: dose 10-20 mg/kg, time 5.0 hrs
# Mus musculus [10] = experiment: Protection against cisplatin-induced C57BL/6J mouse assessed as reduction in vacuole-like changes in kidney at 10 to 20 mg/kg, ip pretreated with compound for 1 hr followed by cisplatin induction and measured after 4 hrs by H and E staining based analysis; assay type: functional, organism-based; settings: dose 10-20 mg/kg, time 5.0 hrs
# Mus musculus [11] = experiment: Protection against cisplatin-induced C57BL/6J mouse assessed as reduction in tubular obstruction in kidney at 10 to 20 mg/kg, ip pretreated with compound for 1 hr followed by cisplatin induction and measured after 4 hrs by H and E staining based analysis; assay type: functional, organism-based; settings: dose 10-20 mg/kg, time 5.0 hrs
# Mus musculus [12] = experiment: Protection against cisplatin-induced C57BL/6J mouse assessed as reduction in tubular structure disintegration in kidney at 10 to 20 mg/kg, ip pretreated with compound for 1 hr followed by cisplatin induction and measured after 4 hrs by H and E staining based analysis; assay type: functional, organism-based; settings: dose 10-20 mg/kg, time 5.0 hrs
# Mus musculus [13] = experiment: Protection against cisplatin-induced C57BL/6J mouse assessed as effect on enlargement of splenic corpuscle in spleen at 10 to 20 mg/kg, ip pretreated with compound for 1 hr followed by cisplatin induction and measured after 4 hrs by H and E staining based analysis; assay type: functional, organism-based; settings: dose 10-20 mg/kg, time 5.0 hrs
# Mus musculus [14] = experiment: Protection against cisplatin-induced C57BL/6J mouse assessed as effect on inflammatory cell infiltration in spleen at 10 to 20 mg/kg, ip pretreated with compound for 1 hr followed by cisplatin induction and measured after 4 hrs by H and E staining based analysis; assay type: functional, organism-based; settings: dose 10-20 mg/kg, time 5.0 hrs
# Mus musculus [15] = experiment: Protection against cisplatin-induced C57BL/6J mouse assessed as effect on fibrotic tissue proliferation in spleen at 10 to 20 mg/kg, ip pretreated with compound for 1 hr followed by cisplatin induction and measured after 4 hrs by H and E staining based analysis; assay type: functional, organism-based; settings: dose 10-20 mg/kg, time 5.0 hrs
# [16] = Cytotoxicity against HEK293T cells assessed as cell viability by MTT assay; assay type: toxicity, cell-based, HEK-293T; settings: human
# [17] = Cytotoxicity against HUVEC cells assessed as cell viability by MTT assay; assay type: toxicity, cell-based; settings: human
# RAW264.7 [18] = experiment: Cytotoxicity against mouse RAW264.7 cells assessed as cell viability by MTT assay
# THP-1 = experiment: Cytotoxicity against human THP-1 cells assessed as cell viability by MTT assay
# Mus musculus [19] = experiment: Anti-inflammatory activity against MSA-2 induced C57BL/6 mouse model assessed as reduction in splenic index at 30 mg/kg, ip pretreated with compound for 1 hr followed by MSA-2 induction and measured after 4 hrs; assay type: functional, organism-based; settings: time 5.0 hrs
# Mus musculus [20] = experiment: Anti-inflammatory activity against MSA-2 induced C57BL/6 mouse model assessed as reduction in IL-6 level in plasma at 30 mg/kg, ip pretreated with compound for 1 hr followed by MSA-2 induction and measured after 4 hr; assay type: functional, organism-based; settings: time 5.0 hrs
# Mus musculus [21] = experiment: Anti-inflammatory activity against MSA-2 induced C57BL/6 mouse model assessed as reduction in IFN-beta level in plasma at 30 mg/kg, ip pretreated with compound for 1 hr followed by MSA-2 induction and measured after 4 hr; assay type: functional, organism-based; settings: time 5.0 hrs
# Mus musculus [22] = experiment: Anti-inflammatory activity against MSA-2 induced C57BL/6 mouse model assessed as downregulation of TBK1 expression in spleen at 30 mg/kg, ip pretreated with compound for 1 hr followed by MSA-2 induction and measured after 4 hrs; assay type: functional, organism-based; settings: time 5.0 hrs
# [23] = Toxicity in male C57BL/6J mouse assessed as body weight loss at 10 mg/kg, ip; assay type: organism-based; settings: in vivo
# Mus musculus [24] = experiment: Renoprotective activity in cisplatin-induced acute kidney injury C57BL/6J mouse model assessed as reduction in BUN level at 10 mg/kg, ip; assay type: functional, organism-based
# Mus musculus [25] = experiment: Renoprotective activity in cisplatin-induced acute kidney injury C57BL/6J mouse model assessed as reduction in […] level at 10 mg/kg, ip; assay type: functional, organism-based
# [26] = Toxicity in male C57BL/6J mouse assessed as kidney damage at 10 mg/kg, ip by H and E staining based analysis; assay type: organism-based; settings: in vivo
# [27] = molecular target: T1, Stimulator of interferon genes protein (Mus musculus); experiment: Binding affinity to STING in mouse RAW264.7 cells assessed as increase in thermal stability at 30 uM 40 to 61 degreeC incubated for 8 hrs by CETSA analysis; assay type: cell-based
# [28] = molecular target: T2, Serine/threonine-protein kinase TBK1 (Homo sapiens) (UniProt Q9UHD2); experiment: Inhibition of TBK1 phosphorylation in SR717-induced human THP-1 cells at 0.2 to 5 uM pretreated with compound for 1 hr followed by SR717 induction and measured after 4 hrs by Western blot analysis; assay type: cell-based; settings: dose 0.2-5 µM, time 5.0 hrs
# T2 sequence (whole entry): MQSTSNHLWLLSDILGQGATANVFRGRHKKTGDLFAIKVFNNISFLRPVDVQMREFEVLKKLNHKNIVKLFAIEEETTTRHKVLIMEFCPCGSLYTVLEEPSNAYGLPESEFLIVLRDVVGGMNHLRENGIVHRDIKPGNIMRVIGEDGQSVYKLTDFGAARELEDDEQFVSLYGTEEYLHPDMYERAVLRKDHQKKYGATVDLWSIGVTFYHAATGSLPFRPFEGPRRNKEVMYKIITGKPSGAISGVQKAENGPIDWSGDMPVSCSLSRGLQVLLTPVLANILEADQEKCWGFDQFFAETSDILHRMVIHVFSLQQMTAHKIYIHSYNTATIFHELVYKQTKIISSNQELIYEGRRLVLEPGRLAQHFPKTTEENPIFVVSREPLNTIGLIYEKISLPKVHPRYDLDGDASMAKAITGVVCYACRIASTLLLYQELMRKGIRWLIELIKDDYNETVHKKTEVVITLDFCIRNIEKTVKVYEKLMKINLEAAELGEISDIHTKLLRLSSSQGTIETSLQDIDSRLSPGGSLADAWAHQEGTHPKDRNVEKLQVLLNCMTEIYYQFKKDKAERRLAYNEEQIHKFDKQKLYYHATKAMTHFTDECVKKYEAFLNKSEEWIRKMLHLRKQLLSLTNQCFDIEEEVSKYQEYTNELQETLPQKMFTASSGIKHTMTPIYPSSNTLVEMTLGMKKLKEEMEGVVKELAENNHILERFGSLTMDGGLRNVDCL
# [29] = molecular target: T3, Interferon regulatory factor 3 (Homo sapiens) (UniProt Q14653); experiment: Inhibition of IRF3 phosphorylation in SR717-induced human THP-1 cells at 0.2 to 5 uM pretreated with compound for 1 hr followed by SR717 induction and measured after 4 hrs by Western blot analysis; assay type: cell-based; settings: dose 0.2-5 µM, time 5.0 hrs
# T3 sequence (whole entry): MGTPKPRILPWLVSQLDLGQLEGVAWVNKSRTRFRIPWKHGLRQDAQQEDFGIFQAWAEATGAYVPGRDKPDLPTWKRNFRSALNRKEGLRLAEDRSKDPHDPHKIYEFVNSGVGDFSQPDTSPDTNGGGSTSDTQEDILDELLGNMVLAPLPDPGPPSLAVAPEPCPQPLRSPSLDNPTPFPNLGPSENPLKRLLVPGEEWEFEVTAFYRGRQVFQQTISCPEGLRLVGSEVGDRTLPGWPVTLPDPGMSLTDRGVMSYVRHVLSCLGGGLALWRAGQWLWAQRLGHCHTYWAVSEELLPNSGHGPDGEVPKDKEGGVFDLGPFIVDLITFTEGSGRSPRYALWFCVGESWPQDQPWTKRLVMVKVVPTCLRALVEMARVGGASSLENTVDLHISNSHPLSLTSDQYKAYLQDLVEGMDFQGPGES
# RAW264.7 [30] = experiment: Antiinflammatory activity in mouse RAW264.7 cells assessed as inhibition of LPS-induced NO release at 0.2 to 5 uM pretreated with compound for 1 hr; assay type: functional, cell-based; settings: dose 0.2-5 µM
SMILES,IC50 [16],IC50 [17],IC50 (RAW264.7 [18]),IC50 (THP-1),Activity (Mus musculus [19]),Activity (Mus musculus [20]),Activity (Mus musculus [21]),Activity (Mus musculus [22]),Activity [23],Activity (Mus musculus [24]),Activity (Mus musculus [25]),Activity [26],other results
O=C(Nc1ccc(OCCCC(F)(F)F)cc1)Nc1c[nH]c2ccccc12,–,–,–,–,–,–,–,–,–,–,–,–,Activity [1]: Active; inhibition [2]: Active; inhibition [3]: Active; Activity (Mus musculus [4]): Active; Activity (Mus musculus [5]): Active; Activity (Mus musculus [6]): Active; Activity (Mus musculus [7]): Active; Activity (Mus musculus [8]): Active; Activity (Mus musculus [9]): Active; Activity (Mus musculus [10]): Active; Activity (Mus musculus [11]): Active; Activity (Mus musculus [12]): Active; Activity (Mus musculus [13]): Active; Activity (Mus musculus [14]): Active; Activity (Mus musculus [15]): Active
CCCCc1ccc(NC(=O)c2ccc([N+](=O)[O-])o2)cc1,2.81 µM,4.77 µM,890 nM,8.07 µM,Active,Active,Active,Active,Non-toxic,Active,Active,Non-toxic,–
O=C(/C=C/C=C/c1ccccc1)OCCc1ccc(NC(=O)c2ccc([N+](=O)[O-])o2)cc1,6.34 µM,7.89 µM,2620 nM,4.6 µM,–,–,–,–,–,–,–,–,–
O=C(/C=C/C=C/c1ccccc1)OCc1ccc(NC(=O)c2ccc([N+](=O)[O-])o2)cc1,7.43 µM,–,530 nM,–,–,–,–,–,–,–,–,–,–
C/C=C/C=C/C(=O)OCc1ccc(NC(=O)c2ccc([N+](=O)[O-])o2)cc1,8.57 µM,–,490 nM,–,–,–,–,–,–,–,–,–,–
O=C(Nc1ccc(OCCCC(F)(F)F)cc1)c1ccc([N+](=O)[O-])o1,11.3 µM,10.4 µM,5210 nM,16.8 µM,Active,Active,Active,Active,Non-toxic,Active,Active,Non-toxic,Activity [27]: Active; inhibition [28]: Active; inhibition [29]: Active; Activity (RAW264.7 [30]): inactive
